Assay results published in US10806819B2, “Wound coverings comprising vitamin d and related methods” (Marshall University Research Corporation, priority 2015, dated 2020).

Key:
Staphylococcus aureus = settings: cited from earlier work
cell growth = settings: direct administration; cited from earlier work
HaCat cells = test: HaCat cell proliferation / cytotoxicity (cell counting); format: cell-based, human; settings: 5.0×10^−6 M free drug
Procedure: (§1) This Example describes cell proliferation of cells treated with the PCL fibers produced in Example 1. Human keratinocyte cell line (HaCat) and monocyte cell line (U937) were cultured in D-MEM with 10% FCS and RPMI-1640 media with 10% FCS respectively. The cultures were maintained at 37° C. under 95% air and 5% CO2 until reaching 80% confluence. The subconfluent HaCat cells were dissociated with a 0.05% trypsin-EDTA and re-suspended in a fresh complete media. U937 cells were precipitated by 300 g centrifugation and then re-suspended in a fresh complete media. The single HaCat cell suspensions were created by gently pipetting up and down HaCat cell aggregates and then placed in 6-cm culture dishes and incubated for 1 day. At the beginning of experiments, 5.0×10^5, 2.0×10^5 and 1.0×10^5 cells were seeded in the culture dishes for 1-day, 3-day, and 5-day treatments, respectively. The media was then replaced by D-MEM containing 0.52% DMSO, D-MEM containing 5.0×10^−7 M 25(OH)D, D-MEM containing 5.0×10^−6 M 25(OH)D, D-MEM containing 1 mg/ml pristine PCL fibers, and D-MEM containing 1 mg/ml 25(OH)D loaded PCL fibers and incubated for 1, 3, and 5 days. Of note, 5.0×10^−6 M 25(OH)D was chosen as a control due to cytotoxicity in OKF6-TERT2 cells. […]
(§2) The HaCat cells and U937 cells were seeded in 24-well plates. […] The cell density was calculated based on the cell counting (FIGS. 5A-5B). […]

[1] = tested on: LL-37 production in HaCat cells; test: LL-37 ELISA of HaCat cell lysate; format: cell-based, human; settings: 5.0×10^−7 M free drug
Procedure: (§3) This Example describes the production of LL-37 in cells treated with the PCL fibers produced in Example 1. Single cell suspensions of both HaCat cells (human keratinocyte cell line) and U937 cells (leukemic monocyte lymphoma cell line) were seeded in 6-cm culture dishes. 5.0×10^5, 2.0×10^5 and 1.0×10^5 cells were seeded in the culture dishes for 1-day, 3-day, and 5-day treatments, respectively. Cells were treated with different formulations as described above and harvested at each time point. The subconfluent HaCat cells and U937 cell suspensions were washed with PBS twice. Subsequently, 300 μl of the M-PER mammalian protein extraction reagent with 0.1% protease inhibitor cocktail was added to […]. They were agitated for 20 min and lysate was collected and transferred to a 1.5-ml microcentrifuge tube. The samples were centrifuged at 14000×g for 40 min at 4° C. to pelletize the cell debris and the supernatant was transferred to a new tube for analysis. Total protein concentration was tested by MicroBCA kit before ELISA test. Concentrations of LL-37 in cell lysate were determined by LL-37 ELISA assay kit based on the manufacturer's instructions.

[2] = tested on: LL-37 production in U937 cells; test: LL-37 ELISA of U937 cell lysate; format: cell-based, human; settings: for amount of LL-37 produced from U937 cells: 5.0×10^−6 M
Procedure: as §3

[3] = tested on: cathelicidin (hCAP18) in U937 cells; test: immunofluorescence assay of cathelicidin (hCAP18) expression in U937 cells; format: cell-based, human
Procedure: (§4) This Example describes an immunofluorescence assay performed on cells treated with the PCL produced in Example 1. The cells were treated with different formulations as discussed above, the cells were rinsed with PBS twice and fixed with 4% paraformaldehyde for 30 min at 37° C. followed by incubation with TNBS (0.05% Triton-X100, 2% FBS in pH 7.2 PBS) for 30 minutes at room temperature prior to immunostaining. Goat anti-cathelicidin polyclonal antibody (1:200) was incubated to label intercellular cathelicidin at 4° C. overnight. Both the full length and cleaved C terminus of cathelicidin (hCAP18) were labeled. Mouse anti-goat IgG-FITC antibody (1:100) was incubated for 2 h after removal of primary antibody and washed with TNBS three times. Then, the secondary antibody was removed and washed by TNBS three times. Nuclei were counterstained with 10 μM DAPI in blue. Images were taken with a digital camera (Carl Zeiss). The exposure time for taking images for HaCat and U937 cells was fixed at 400 ms and 40 ms, respectively.

OKF6-TERT2 = settings: recent study; cited from earlier work
Pseudomonas aeruginosa = test: antibacterial activity of U937 lysis solutions (CFU count on agar plates); format: cell-based; settings: U937 treated with 5.0×10^−6 M for 5 days
Procedure: FIG. 8 is a graph showing the quantification of Pseudomonas aeruginosa CFUs treated by U937 lysis solutions. U937 were incubated in the presence of 1 mg/ml pristine PCL fibers, 0.52% DMSO, 5.0×10^−7 M 25(OH)D, 5.0×10^−6 M 25(OH)D, and 1 mg/ml plasma treated and 25(OH)D loaded PCL fibers (containing 5.0×10^−7M 25(OH)D equivalent amount based on the calculations from release profiles in the first 3 days) for 1, 3 and 5 days. Bacteria were incubated with cell lysis solutions and CFUs were counted on agar plates. Each data point represents arithmetic mean±SD values from three samples. Statistical significance was evaluated by student's t-test (*p<0.05).
This Example describes the antibacterial activities in cells treated with the PCL fibers produced in Example 1. Briefly, bacteria were incubated with cell lysis solutions and CFUs were counted on agar plates.

U937 cells = test: U937 cell proliferation / cytotoxicity (cell counting); format: cell-based, human; settings: 5.0×10^−6 M, 3 days and 5 days
Procedure: as §1, §2

[4] = tested on: cathelicidin (hCAP18) in HaCat cells; test: immunofluorescence assay of cathelicidin (hCAP18) expression in HaCat cells; format: cell-based, human
Procedure: as §4

LL-37: human cathelicidin, small cationic antimicrobial peptide derived from hCAP-18
EC50 against Staphylococcus aureus (Staphylococcus aureus): 1.27 µg/mL

C=C1/C(=C\C=C2/CCC[C@]3(C)[C@@H]([C@H](C)CCCC(C)(C)O)CC[C@@H]23)C[C@@H](O)C[C@@H]1O [1,25-hydroxyvitamin D3]
concentration generating cytotoxicity and inhibition of cell growth (cell growth): 10^−7 M

C=C1CC[C@H](O)C/C1=C/C=C1\CCC[C@]2(C)[C@@H]([C@H](C)CCCC(C)(C)O)CC[C@@H]12 [25(OH)D, 25-hydroxyvitamin D3]
cytotoxic effects on HaCat cells (HaCat cells): marginal cytotoxic effects | production of hCAP 18 and LL-37 in HaCat cells [1]: failed to induce production of significant amount | amount of LL-37 produced from U937 cells ([2]; 3 days): increased | amount of LL-37 produced from U937 cells ([2]; 5 days): decreased sharply | production of hCAP 18 and LL-37 in U937 cells ([2]; 5.0×10^−7 M free drug): failed to induce production of significant amount | change of fluorescence intensity (hCAP 18) of U937 cells ([3]; 5.0×10^−6 M, day 1 to day 3): increased | change of fluorescence intensity (expression level of hCAP 18) of U937 cells ([3]; 5.0×10^−6 M, day 3 to day 5): decreased | hCAP 18 expression in U937 cells ([3]; 5.0×10^−6 M, one day): exhibited expression of hCAP 18 | cathelicidin staining in U937 cells ([3]; 5.0×10^−7 M, each time point): negative staining | concentration toxic to OKF6-TERT2 (OKF6-TERT2): ≥ 5 µM | concentration with little cytotoxicity in OKF6-TERT2 (OKF6-TERT2): lower than 5.0×10^−7 M | numbers of CFUs after incubation with U937 lysis solutions, versus other treatment groups (Pseudomonas aeruginosa): significantly lower numbers of CFUs | proliferation rate of U937 cells (U937 cells): reduced dramatically | hCAP 18 staining in HaCat cells ([4]; 5.0×10^−6 M, 3 days): positive green fluorescent staining | hCAP 18 expression in HaCat cells ([4]; 5.0×10^−7 M): did not demonstrate hCAP 18 expression
